The subject of data set [1] is Plasmodium falciparum. Briefly: Hit confirmation in dose-response curve in NF54 nanoGlo assay, at 12h. The format is functional, organism-based, Erythrocyte. On the set-up: timepoint 12 hour. Particulars: Plasmodium falciparum, NF54, Erythrocyte, 12 h.
In data set [2] the test system is Plasmodium falciparum. Briefly: Hit confirmation in dose-response curve in NF54 pLDH assay, at 72h. In kind it is functional, organism-based. The conditions noted are these: NF54, Erythrocyte. On the set-up: timepoint 72 hour.
Data set [3] has as its system Plasmodium falciparum. Briefly: Hit confirmation in dose-response curve in NF54 nanoGlo assay, at 72h. On the set-up: timepoint 72 hour. The conditions noted are these: Plasmodium falciparum, NF54, Erythrocyte, 72 h. The format is functional, organism-based, Erythrocyte.
A short description of data set [4]: Hit confirmation in dose-response curve in HepG2 cytotoxicity assay, at 72h. The format is toxicity, cell-based. More on the design: timepoint 72 hour. The conditions noted are these: human, HepG2 cells.
For data set [5], the system named is Plasmodium falciparum. Briefly: Hit confirmation in dose-response curve in Dd2 pLDH assay, at 72h. The format is functional, organism-based. More on the design: timepoint 72 hour. Particulars: Dd2, Erythrocyte.

pIC50: −log10 of the molar value.

With `CCOc1cc(C(=O)Nc2ccc3nc4c(c(Nc5ccc(OC)c(OC)c5)c3c2)CCCC4)cc(OCC)c1OCC`, the pIC50 was 5.61 with Plasmodium falciparum [1], 5.50 in the data set on Plasmodium falciparum [2], 5.86 with Plasmodium falciparum [3] and 5.75 in the data set with Plasmodium falciparum [5]. Moreover, the IC50 at 72 h in data set [4] is > 10 µM.
With `N[C@H]1C[C@@H](c2cc(N3CCN(C4CCCCC4)CC3)nc(N3CCCC3)n2)C1`, the negative logarithm of the IC50 (pIC50) with Plasmodium falciparum [1] is 5.24; in the data set with Plasmodium falciparum [2] it was 5.38; in the data set with Plasmodium falciparum [3], 5.70; in the data set with Plasmodium falciparum [5], 5.64. Further, the IC50 at 72 h in data set [4] is > 10 µM.
`CC(C)c1cc(=O)[nH]c(-n2nc(C3CC3)cc2NC(=O)COc2ccc3ccccc3c2)n1`: the pIC50 in the data set with Plasmodium falciparum [1] is < 5.00; with Plasmodium falciparum [2] it was 5.03; in the data set with Plasmodium falciparum [3], 5.79; in the data set with Plasmodium falciparum [5] it was 5.05. The IC50 at 72 h in data set [4] is > 10 µM.
In the case of `Cc1ccc2c(c1)c1c(n2S(=O)(=O)c2ccc(C(C)(C)C)cc2)CCCN(C)C1`, the pIC50 is < 5.00 with Plasmodium falciparum [1], 5.64 in the data set on Plasmodium falciparum [2], 5.83 in the data set on Plasmodium falciparum [3] and 5.87 in the data set with Plasmodium falciparum [5]. The IC50 at 72 h in data set [4] was > 10 µM.
For the compound `CCOc1cc(C(c2c(C)n(C)n(-c3ccccc3)c2=O)c2c(C)n(C)n(-c3ccccc3)c2=O)ccc1OCc1ccccc1`, the negative-log IC50 (pIC50) in the data set on Plasmodium falciparum [1] is 5.51; with Plasmodium falciparum [2], 5.16; with Plasmodium falciparum [3] it was 5.73; with Plasmodium falciparum [5], 5.33. Besides, the IC50 at 72 h in data set [4] was > 10 µM.
With `COc1ccc(CCNC(=O)c2cc3c(=O)[nH]c(C)cn3n2)cc1OC`, the pIC50 with Plasmodium falciparum [1] was 6.34; in the data set with Plasmodium falciparum [2] it was < 5.00; in the data set on Plasmodium falciparum [3] it was 5.84; in the data set on Plasmodium falciparum [5], < 5.00. In addition, the IC50 at 72 h in data set [4] is > 10 µM.
Consider `COc1nc(-c2cccc(C(=O)N3C[C@@H]4CC[C@H](C3)C(=O)N4)c2)ncc1F`, for which the pIC50 with Plasmodium falciparum [1] is < 5.00; in the data set on Plasmodium falciparum [2] it was 6.09; with Plasmodium falciparum [3], 6.32; with Plasmodium falciparum [5] it was < 5.00. Further, the IC50 at 72 h in data set [4] was > 10 µM.
Consider `C[C@H]1[C@@H]2[C@@H](O)C([C@H](C)C(=O)NC3CCCCC3)CC[C@@]2(C)CC[C@@H]1NC(=O)CC(C)(C)C` (stereo not given in full), for which the pIC50 was < 5.00 with Plasmodium falciparum [1], 5.46 in the data set on Plasmodium falciparum [2], < 5.00 in the data set on Plasmodium falciparum [3] and 5.54 with Plasmodium falciparum [5]. In addition, the IC50 at 72 h in data set [4] is > 10 µM.
Consider `Cc1ccc(C(=O)N(Cc2cccc(F)c2)c2ccc(CC(=O)N[C@@H](C)c3ccccc3)cc2)cc1`, for which the pIC50 in the data set with Plasmodium falciparum [1] is < 5.00; in the data set with Plasmodium falciparum [2] it was 5.37; in the data set with Plasmodium falciparum [3] it was 5.78; with Plasmodium falciparum [5], 5.51. Also, the IC50 at 72 h in data set [4] is > 10 µM.
In the case of `COc1ccc(-c2cc(C(F)(F)F)nc(-n3nc(-c4cccc(OC)c4)c(Cl)c3-c3cccc(OC)c3)n2)cc1`, the pIC50 in the data set with Plasmodium falciparum [1] is 5.76; in the data set with Plasmodium falciparum [2], < 5.00; in the data set on Plasmodium falciparum [3] it was 5.82; in the data set on Plasmodium falciparum [5] it was 5.39. For the same compound, the IC50 at 72 h in data set [4] is > 10 µM.
For `Cc1ccc(-c2cc(O)cc(CC[C@H]3CCCCN3)c2)c(C)n1`, in that order: 5.25, 5.55, 5.73, 5.78 and > 10 µM.
With `CCc1ccc(NC(=O)[C@H](C)N2CCC(NS(=O)(=O)c3cccs3)CC2)cc1`, the pIC50 in the data set with Plasmodium falciparum [1] is 5.32; with Plasmodium falciparum [2] it was 5.38; in the data set with Plasmodium falciparum [3], 5.94; in the data set on Plasmodium falciparum [5], 5.64. The IC50 at 72 h in data set [4] is > 10 µM.
Taken in the same sequence, the figures for `CCCN(CCC)CCN1C(=O)[C@@H]2C(C(=O)Nc3cc(Cl)cc(Cl)c3)[C@@H]3C=C[C@]2(O3)C1C(=O)NC1CCCCC1` (stereo not given in full) were < 5.00, 5.43, 5.60, 5.52 and > 10 µM.
In the case of `COc1ccc(Nc2nnc(-c3ccc(NC(=O)C(=O)NCCCn4ccnc4)cc3)s2)cc1`, the pIC50 in the data set with Plasmodium falciparum [1] was 5.57; in the data set on Plasmodium falciparum [2] it was 5.21; in the data set with Plasmodium falciparum [3] it was 5.89; with Plasmodium falciparum [5], 5.37. Also, the IC50 at 72 h in data set [4] was > 10 µM.
Regarding `COc1ccc(CC(=O)NCCn2c(C(F)(F)F)nc3ccccc32)cc1`, the pIC50 in the data set on Plasmodium falciparum [1] is 5.79; in the data set with Plasmodium falciparum [2], < 5.00; in the data set with Plasmodium falciparum [3], 5.59; in the data set with Plasmodium falciparum [5], < 5.00. The concentration for half-maximal inhibition (IC50) at 72 h in data set [4] is > 10 µM.
Take `CC(=O)Nc1c(-c2ccc(C)cc2)c(C)nn1-c1ccc(C(=O)Nc2cc(C)ccn2)cc1`: the negative-log IC50 (pIC50) in the data set on Plasmodium falciparum [1] was < 5.00; in the data set with Plasmodium falciparum [2], 5.02; with Plasmodium falciparum [3], 5.56; with Plasmodium falciparum [5], 5.13. The IC50 at 72 h in data set [4] is > 10 µM.
For `FC(F)(F)C1CN(c2nc(-c3ccccn3)nc3c2CCC3)C1`, in that order: 5.61, 5.61, 5.89, 5.64 and > 10 µM.
As to `O=C(COc1ccccc1)Nc1ccc2c(c1)C(O)=Nc1cccnc1O2`, the pIC50 in the data set with Plasmodium falciparum [1] is < 5.00; in the data set on Plasmodium falciparum [2], 5.61; in the data set with Plasmodium falciparum [3] it was 5.76; with Plasmodium falciparum [5], 5.55. In addition, the IC50 at 72 h in data set [4] is > 10 µM.

In general, pIC50 refers to the IC50 on a negative log10 scale, so that one unit is a factor of ten. Read a low pIC50 as a large IC50. A word on the IC50: it is the concentration that inhibits the measured activity by half. Higher therefore signals weaker potency.

Source of the values: ChEMBL document CHEMBL4888484, “Replenishing the malaria drug discovery pipeline: Screening and hit evaluation of the MMV Hit Generation Library 1 (HGL1) against asexual blood stage Plasmodium falciparum ,using a nano luciferase reporter read-out” (2022).
